Here are results for one compound from PMC10552397 (Cell Communication and Signaling : CCS, 2023).

One experiment relates to HeLa wt cells. The experiment is described as follows: Immunofluorescence of LC3 and LAMP1. The class given is cell-based. To be noted: 2 h; prodigiosin 100 nM, BafA1 10 nM. As for the experimental part: For immunofluorescence microscopy, HeLa cells were seeded on glass coverslips in 24-well plates. After treatment, cells were fixed in 4% paraformaldehyde for 15 min on ice, quenched with 50 mM NH4Cl for 15 min and permeabilized with 50 µg/mL digitonin (Sigma-Aldrich, St. Louis, MO, USA, #D141) for 5 min. Fixed samples were blocked with 3% BSA (Roth, Karlsruhe, Germany, #8076) for 30 min or overnight and incubated with primary antibodies diluted in 3% BSA for 2 h. Samples were then washed three times with DPBS, incubated with the appropriate secondary antibodies diluted in 3% BSA for 30 min and washed three times with DPBS. Afterwards, cells were embedded in ProLong Glass Antifade Mountant (Thermo Fisher Scientific, Waltham, MA, USA, #P36980) containing 1 µg/mL DAPI (Roth, Karlsruhe, Germany, #6335.1). Images were recorded with an Axio Observer 7 fluorescence microscope (Carl Zeiss Microscopy, Oberkochen, Germany) using a 40x/1,4 Oil DIC M27 Plan-Apochromat objective (Carl Zeiss Microscopy, Oberkochen, Germany) and an ApoTome 2 (Carl Zeiss Microscopy, Oberkochen, Germany).

The next experiment has as its system JUNB. The experiment is described as follows: TPP-TR/RTSA, JUNB. The class given is binding, Homo sapiens. To be noted: 100 nM vs DMSO, 6 h, HeLa wt. As for the experimental part: TPP was performed essentially as described, but with major modifications to the TMT labeling sets and statistical data analysis for TPP-TR.
Adherent cells were washed in the dish once with DPBS and harvested by Trypsin–EDTA (0.25%, Thermo Fisher Scientific, Waltham, MA, USA, #25,200,056) treatment. […]
After temperature treatment, samples were supplemented with lysis buffer (final concentrations: 0.36 U/µL benzonase, 1.5 mM MgCl2, 1 mM Na3VO4, 10 mM NaF, 2.5 mM Na4P2O7, 0.8% w/v NP-40) for 1 h on ice. […] The total protein concentration of the resulting cell extracts containing the fraction of soluble, non-denatured proteins was determined (Pierce 660 nm Protein Assay, BSA as standard). […] The two (37 °C or 50 °C) x ten (concentrations) x three (replicates) = 60 TPP-CCR samples and two (treatment and control) x ten (temperatures) x three (replicates) = 60 TPP-TR samples were analyzed by LC–MS/MS. GRASP55 was additionally quantified from the TPP-TR samples by immunoblotting as described in the respective section.
For TPP-CCR, SP3 was performed as described with slight modifications to the original protocol using on average 5 µg total protein per sample and resulting in theoretically 5 µg peptides in 22 µL 50 mM triethylammonium bicarbonate per sample. […] This volume was calculated such that the lowest two temperature samples (36.5 °C and 41.2 °C) contained 10 µg total protein on average. […]

For `CCCCCC1=C/C(=C/c2[nH]c(-c3ccc[nH]3)cc2OC)N=C1C` [Prodigiosin, prodigiosin], in the experiment on HeLa wt cells, the LC3-positive structures entry is reported as “increase”; the “co-localization of LC3- and LAMP1-positive structures” value is “highly significant increase”. The compound also came in with a Mean_dTm in the experiment with JUNB of 2.343.
